Values quoted from earlier work, collected in US10251814B2, “Cefuroxime safety delivery system” (CIS PHARMA AG, priority 2011, dated 2019).
Read-outs that look alike come from different tables or passages of the source.

How the values were obtained:
[1] = system: human corneal endothelial cells; details: 24-hour exposure
[2] = in 48 hours, at room temperature
endophthalmitis = details: 16,603 patients; cefuroxime 1 mg in 0.1 ml normal saline intracameral at end of surgery; levofloxacin drops prior and subsequent to surgery
[3] = 1 mg in 0.1 ml of aqueous solution

Question: With `CO/N=C(\C(=O)N[C@@H]1C(=O)N2C(C(=O)O)=C(COC(N)=O)CS[C@H]12)c1ccco1` [cefuroxime] as the compound, how does the “concentration resulting in a significant reduction in cell viability” value [1] read?
Answer: Its value is “exceeding 2.75 mg/ml”.

Question: What about the “hydrolysis rate in aqueous solution” value [2] of the same compound?
Answer: Its value is “about 10%”.

Question: And the “reduction of the risk for endophthalmitis” value (endophthalmitis)?
Answer: The value was “nearly five fold”.

Question: And the “safety of intracameral administration” value [3]?
Answer: The value was “has been established”.

Question: And the mean intracameral concentration (after one hour, intracameral administration of 1 mg in 0.1 ml)?
Answer: The mean intracameral concentration was 0.756 mg/mL.

Question: What about the mean intracameral concentration (shortly after intracameral administration of 1 mg in 0.1 ml) of the same compound?
Answer: Its mean intracameral concentration is 2.742 mg/mL.
